# Assays:
# TLR7 = target: T1, TLR7 (Homo sapiens, UniProt Q9NYK1); experiment: Human PBMC cell-based assay, TLR7 agonist GS-986 stimulation, cytokine (IL-6 and IFNα) readout; details: human PBMCs, GS-986 400 nM, 6 hours; Table 26; read-out: TLR-7 EC50
# T1 construct: lymphocytes, monocytes and dendritic cells that express TLR7, TLR8 and TLR9; endogenous in cells; host or cells: human PBMCs from healthy donors
# T1 sequence (Q9NYK1 27-1049): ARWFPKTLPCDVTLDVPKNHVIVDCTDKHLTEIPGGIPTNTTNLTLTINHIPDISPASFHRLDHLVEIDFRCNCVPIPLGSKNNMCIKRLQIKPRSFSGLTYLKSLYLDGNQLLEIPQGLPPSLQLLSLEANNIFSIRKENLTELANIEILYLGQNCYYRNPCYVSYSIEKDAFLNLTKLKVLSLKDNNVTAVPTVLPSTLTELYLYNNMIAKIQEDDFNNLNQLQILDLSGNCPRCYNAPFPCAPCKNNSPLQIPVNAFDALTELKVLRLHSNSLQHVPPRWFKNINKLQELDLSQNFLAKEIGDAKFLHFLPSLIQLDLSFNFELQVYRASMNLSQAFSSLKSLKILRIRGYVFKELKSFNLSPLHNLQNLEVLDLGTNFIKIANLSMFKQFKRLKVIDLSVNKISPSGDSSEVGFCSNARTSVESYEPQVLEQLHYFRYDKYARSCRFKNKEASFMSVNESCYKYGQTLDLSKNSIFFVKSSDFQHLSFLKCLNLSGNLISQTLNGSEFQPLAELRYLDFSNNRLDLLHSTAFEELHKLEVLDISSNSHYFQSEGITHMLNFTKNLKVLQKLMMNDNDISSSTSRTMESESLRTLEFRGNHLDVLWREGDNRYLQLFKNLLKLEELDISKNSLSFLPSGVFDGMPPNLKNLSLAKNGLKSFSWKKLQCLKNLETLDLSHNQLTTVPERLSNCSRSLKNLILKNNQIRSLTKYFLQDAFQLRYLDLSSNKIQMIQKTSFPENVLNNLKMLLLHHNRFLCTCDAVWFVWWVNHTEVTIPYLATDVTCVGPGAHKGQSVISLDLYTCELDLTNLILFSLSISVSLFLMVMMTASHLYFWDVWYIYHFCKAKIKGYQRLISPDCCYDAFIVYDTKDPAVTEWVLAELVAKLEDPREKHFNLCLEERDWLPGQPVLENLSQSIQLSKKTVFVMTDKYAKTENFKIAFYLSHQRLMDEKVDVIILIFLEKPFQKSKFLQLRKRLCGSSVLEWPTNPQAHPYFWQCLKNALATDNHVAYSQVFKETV
# Method in brief: (§1)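 Cryopreserved healthy-donor PBMCs (100,000 cells/well, RPMI-1640 + 10% FBS) preincubated 1 h at 37 °C with antagonist (10-point dose response), then stimulated 6 h with GS-986 (400 nM final, TLR7) or ODN-2216 (3 μM final, TLR9). Supernatant IL-6 and IFNα measured by electrochemiluminescence immunoassay; EC50 from sigmoidal fit.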
# TLR9 = target: T2, TLR9 (Homo sapiens, UniProt Q9NR96); experiment: Human PBMC cell-based assay, TLR9 agonist ODN-2216 stimulation, cytokine (IL-6 and IFNα) readout; details: human PBMCs, ODN-2216 3 μM, 6 hours; Table 26; read-out: TLR-9 EC50
# T2 construct: lymphocytes, monocytes and dendritic cells that express TLR7, TLR8 and TLR9; endogenous in cells; host or cells: human PBMCs from healthy donors
# T2 sequence (Q9NR96 26-1032): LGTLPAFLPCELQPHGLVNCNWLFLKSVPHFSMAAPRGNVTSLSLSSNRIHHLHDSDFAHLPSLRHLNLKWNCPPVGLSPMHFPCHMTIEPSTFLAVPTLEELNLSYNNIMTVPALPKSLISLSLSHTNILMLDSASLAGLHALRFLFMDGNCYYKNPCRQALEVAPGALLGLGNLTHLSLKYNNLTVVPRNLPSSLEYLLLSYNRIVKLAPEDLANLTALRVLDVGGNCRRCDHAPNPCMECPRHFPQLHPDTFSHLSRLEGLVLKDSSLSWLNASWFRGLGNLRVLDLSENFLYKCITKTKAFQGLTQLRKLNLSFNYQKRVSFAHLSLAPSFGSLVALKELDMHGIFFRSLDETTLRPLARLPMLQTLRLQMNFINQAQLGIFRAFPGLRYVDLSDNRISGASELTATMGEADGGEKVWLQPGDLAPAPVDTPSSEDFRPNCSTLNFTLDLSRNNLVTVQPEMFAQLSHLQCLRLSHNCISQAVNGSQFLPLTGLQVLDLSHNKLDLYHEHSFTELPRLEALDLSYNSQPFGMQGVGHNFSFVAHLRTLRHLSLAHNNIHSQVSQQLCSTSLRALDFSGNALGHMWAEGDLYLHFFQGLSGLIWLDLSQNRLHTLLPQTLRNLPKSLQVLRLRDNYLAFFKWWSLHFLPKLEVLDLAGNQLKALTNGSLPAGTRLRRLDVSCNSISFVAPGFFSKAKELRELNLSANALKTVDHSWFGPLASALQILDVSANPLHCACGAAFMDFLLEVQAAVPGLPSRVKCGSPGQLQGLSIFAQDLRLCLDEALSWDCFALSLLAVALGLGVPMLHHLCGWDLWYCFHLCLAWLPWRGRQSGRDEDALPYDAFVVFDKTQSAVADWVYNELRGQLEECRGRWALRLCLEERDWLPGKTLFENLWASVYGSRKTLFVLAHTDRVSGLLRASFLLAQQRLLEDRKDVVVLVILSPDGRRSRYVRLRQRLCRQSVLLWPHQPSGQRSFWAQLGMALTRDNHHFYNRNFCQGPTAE
# Method in brief: as §1
EC50 (TLR7),EC50 (TLR9),Structure (SMILES)
5.1 nM,10.6 nM,"Cc1cc(-c2[nH]c3cc(-c4ccc(C5=CCNCC5)nc4)ccc3c2C)cc(C)n1 [Example 132, 2-(2,6-dimethylpyridin-4-yl)-3-methyl-6-(1′,2′,3′,6′-tetrahydro-[2,4′-bipyridin]-5-yl)-1H-indole]"
26.1 nM,153 nM,Cc1cc(-c2[nH]c3cc(-c4ccc(N5CCNCC5)nc4C)ccc3c2C)cc(C)n1 [Example 4]
317 nM,2190 nM,Cc1nn(C)cc1-c1[nH]c2cc(-c3ccc(N4CCNCC4)nc3)ccc2c1C [Example 88]
437 nM,101 nM,"Cc1cc(-c2[nH]c3cc(C#CC4CCNCC4)ccc3c2C)cc(C)n1 [Example 100, 2-(2,6-dimethylpyridin-4-yl)-3-methyl-6-(piperidin-4-ylethynyl)-1H-indole]"
24.1 nM,55.8 nM,CNCCN(C)c1ccc(-c2ccc3c(C)c(-c4cc(C)nc(C)c4)[nH]c3c2)cn1 [Example 30]
150 nM,106 nM,Cc1cc(-c2[nH]c3cc(-c4ccc(S(=O)(=O)C5CCNCC5)cc4)ccc3c2C)cc(C)n1 [Example 42]
222 nM,784 nM,"Cc1cc(-c2[nH]c3cc(C4CCNCC4)ccc3c2C(C)C)cc(C)n1 [Example 50, 2-(2,6-dimethylpyridin-4-yl)-3-isopropyl-6-(piperidin-4-yl)-1H-indole]"
93.5 nM,203 nM,Cc1cc(-c2[nH]c3cc(-c4ccc(N5CCN(C(=O)[C@@H]6CCNC6)CC5)nc4)ccc3c2C)cc(C)n1 [Example 139]
73.9 nM,41.3 nM,Cc1cc(-c2[nH]c3cc(-c4ccc(N5CCN(C(=O)[C@@H]6CCCN6)CC5)nc4)ccc3c2C)cc(C)n1 [Example 135]
886 nM,601 nM,Cc1cc(-c2[nH]c3cc(-c4ccnc(N(C)C)c4)ccc3c2C)cc(C)n1 [Example 61]
12.9 nM,69.6 nM,"Cc1cc(-c2[nH]c3cc(-c4ccc(N5CCN(C)CC5)nc4)ccc3c2C)cc(C)n1 [Example 41, 2-(2,6-dimethylpyridin-4-yl)-3-methyl-6-(6-(4-methylpiperazin-1-yl)pyridin-3-yl)-1H-indole]"
3.4 nM,124 nM,Cc1cc(-c2[nH]c3cc(-c4ccc(N5CCN(CCO)CC5)nc4)ccc3c2C2CC2)cc(C)n1 [Example 143]
98.9 nM,74.7 nM,Cc1cc(-c2[nH]c3cc(-c4cccc(C(=O)N5CCN6CCC5C6)c4)ccc3c2C)cc(C)n1 (stereo not shown) [Example 127]
549 nM,358 nM,"CCc1c(-c2cc(C)nc(C)c2)[nH]c2cc(C3CCNCC3)ccc12 [Example 49, 2-(2,6-dimethylpyridin-4-yl)-3-ethyl-6-(piperidin-4-yl)-1H-indole]"
56.8 nM,59.2 nM,Cc1cc(-c2[nH]c3cc(-c4ccc(N5CCN(C(=O)[C@H]6COCCN6)CC5)nc4)ccc3c2C)cc(C)n1 [Example 111]
58.3 nM,114 nM,Cc1cc(-c2[nH]c3cc(-c4ccc(N5CCN(C(=O)[C@@H]6CNCCO6)CC5)nc4)ccc3c2C)cc(C)n1 [Example 112]

EC50 (TLR7),EC50 (TLR9),Structure (SMILES)
48.3 nM,35.2 nM,"Cc1cc(-c2[nH]c3cc(-c4cnc5c(c4)CCNC5)ccc3c2C)cc(C)n1 [Example 181, 3-[2-(2,6-dimethyl-4-pyridyl)-3-methyl-1H-indol-6-yl]-5,6,7,8-tetrahydro-1,7-naphthyridine]"
415 nM,288 nM,Cc1cc(-c2[nH]c3cc(-c4ccc(N5CCN(C(=O)[C@@H]6CC(F)(F)CN6)CC5)nc4)ccc3c2C)cc(C)n1 [Example 138]
89.9 nM,87.6 nM,Cc1cc(-c2[nH]c3cc(-c4cnn(C5CCCNC5)c4)ccc3c2C)cc(C)n1 (stereo not shown) [Example 18]
37.8 nM,45.6 nM,CNCC(=O)N1CCN(c2ccc(-c3ccc4c(C)c(-c5cc(C)nc(C)c5)[nH]c4c3)cn2)CC1 [Example 136]
17.7 nM,37.3 nM,Cc1cc(-c2[nH]c3cc(-c4ccc(N5CC[C@H](N)C5)nc4)ccc3c2C)cc(C)n1 [Example 32]
17.9 nM,14.6 nM,"Cc1cc(-c2[nH]c3cc(-c4ccc(N5CCC(NCCO)CC5)nc4)ccc3c2C)cc(C)n1 [Example 131, 2-((1-(5-(2-(2,6-dimethylpyridin-4-yl)-3-methyl-1H-indol-6-yl)pyridin-2-yl)piperidin-4-yl)amino)ethan-1-ol]"
6.7 nM,187 nM,"CCc1c(-c2cc(C)nc(C)c2)[nH]c2cc(-c3ccc(N4CCNCC4)nc3)ccc12 [Example 70, 2-(2,6-dimethylpyridin-4-yl)-3-ethyl-6-(6-(piperazin-1-yl)pyridin-3-yl)-1H-indole]"
270 nM,110 nM,"Cc1cc(-c2[nH]c3cc(-c4ccnc(N5CCN(C)CC5)c4)ccc3c2C)cc(C)n1 [Example 60, 2-(2,6-dimethylpyridin-4-yl)-3-methyl-6-(2-(4-methylpiperazin-1-yl)pyridin-4-yl)-1H-indole]"
102 nM,19.3 nM,Cc1cc(-c2[nH]c3cc(-c4ccc5c(c4)CCNC5)ccc3c2C)cc(C)n1 [Example 13]
33.1 nM,121 nM,Cc1cc(-c2[nH]c3cc(-c4ccc(N5CCNCC5)nc4)ccc3c2C)cc(N)n1 [Example 78]
30.7 nM,566 nM,Cc1cc(-c2[nH]c3cc(-c4ccc5nc([C@@H]6CCCNC6)[nH]c5c4)ccc3c2C)cc(C)n1 [Example 160]
8.3 nM,13.5 nM,Cc1cc(-c2[nH]c3cc(-c4ccc(N5CC[C@@H](N)C5)nc4)ccc3c2C)cc(C)n1 [Example 31]
17.7 nM,83.4 nM,Cc1cc(-c2[nH]c3cc(-c4ccc(N5CC6CNCC6C5)nc4)ccc3c2C)cc(C)n1 (stereo not shown) [Example 34]
74.8 nM,98.3 nM,Cc1cc(-c2[nH]c3cc(-c4ccc(C(=O)N5CCC(N)CC5)cc4)ccc3c2C)cc(C)n1 [Example 125]
92 nM,232 nM,"Cc1cc(-c2[nH]c3cc(-c4cn(C5CCNCC5)nn4)ccc3c2C)cc(C)n1 [Example 72, 2-(2,6-dimethylpyridin-4-yl)-3-methyl-6-(1-(piperidin-4-yl)-1H-1,2,3-triazol-4-yl)-1H-indole]"
21.6 nM,36.1 nM,"Cc1cc(-c2[nH]c3cc(-c4ccc(N5CCN(CCN(C)C)CC5)nc4)ccc3c2C)cc(C)n1 [Example 114, 2-(4-(5-(2-(2,6-dimethylpyridin-4-yl)-3-methyl-1H-indol-6-yl)pyridin-2-yl)piperazin-1-yl)-N,N-dimethylethan-1-amine]"

# — US20250002471A1 (Gilead Sciences, Inc., priority 2020, published 2025)
